The structures appear in SMILES notation.

Cbl-b protein (CBL-B, GST-Tag), sequence (Q13191 whole entry): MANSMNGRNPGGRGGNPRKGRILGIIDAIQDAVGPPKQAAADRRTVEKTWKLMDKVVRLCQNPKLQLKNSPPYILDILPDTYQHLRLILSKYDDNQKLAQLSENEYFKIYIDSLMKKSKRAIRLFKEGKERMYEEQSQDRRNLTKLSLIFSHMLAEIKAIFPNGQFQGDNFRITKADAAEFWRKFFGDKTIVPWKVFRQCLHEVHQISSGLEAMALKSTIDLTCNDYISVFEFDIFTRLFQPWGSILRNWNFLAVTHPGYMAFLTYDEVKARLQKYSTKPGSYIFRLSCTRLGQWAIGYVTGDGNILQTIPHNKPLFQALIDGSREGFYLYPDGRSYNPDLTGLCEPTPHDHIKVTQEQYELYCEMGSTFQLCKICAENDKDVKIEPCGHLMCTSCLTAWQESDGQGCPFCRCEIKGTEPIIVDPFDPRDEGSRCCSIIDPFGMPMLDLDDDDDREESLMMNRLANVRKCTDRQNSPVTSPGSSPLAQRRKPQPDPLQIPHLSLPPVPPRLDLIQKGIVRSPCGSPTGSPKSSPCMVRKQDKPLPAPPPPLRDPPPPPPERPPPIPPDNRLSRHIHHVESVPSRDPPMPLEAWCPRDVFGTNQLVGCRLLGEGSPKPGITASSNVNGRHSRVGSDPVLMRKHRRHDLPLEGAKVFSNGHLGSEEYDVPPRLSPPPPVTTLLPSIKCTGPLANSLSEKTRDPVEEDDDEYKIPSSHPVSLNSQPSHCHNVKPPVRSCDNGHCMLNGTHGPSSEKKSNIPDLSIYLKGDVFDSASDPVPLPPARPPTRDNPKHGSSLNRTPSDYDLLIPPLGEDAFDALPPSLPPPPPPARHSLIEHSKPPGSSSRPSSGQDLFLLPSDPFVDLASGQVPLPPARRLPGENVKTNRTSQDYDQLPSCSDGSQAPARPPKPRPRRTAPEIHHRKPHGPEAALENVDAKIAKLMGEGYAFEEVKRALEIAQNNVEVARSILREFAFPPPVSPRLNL

One assay has as its target Cbl-b protein (CBL-B, GST-Tag) (Homo sapiens (Human), UniProt Q13191). In words: HTRF based binding assay, affinity to Cbl-b protein.
Conditions: not given
(In general: TR-FRET usually uses a lanthanide donor and a delayed reading to cut background.)
Broadly, the IC50 is the concentration that inhibits the measured activity by half. High values mean weaker potency, low ones greater potency. `C[C@H]1CCCN(Cc2cc(C(F)(F)F)c3ncn(-c4cc([C@]5(c6nncn6C6CCC6)C[C@@H](C)C5)ccn4)c(=O)c3c2)C1` [Example 110] registered a 50% inhibitory concentration (IC50) of 50 to 500 nM.

In the case of `C[C@H]1CCCN(Cc2cc(C(=O)Nc3cccc([C@H](c4nncn4C)C4COC4)c3)cc(C(F)(F)F)c2)C1` [Example 27], the IC50 lay in the range of 50 to 500 nM.

`C[C@H]1CCCN(Cc2cc(C(F)(F)F)c3cnn(-c4cccc(C5(c6nncn6C)CC(F)(F)C5)c4)c(=O)c3c2)C1` [Example 83]: the IC50 was 50 to 500 nM.

`C[C@H]1CCCN(Cc2cc(C(F)(F)F)c3ncn(-c4cccc(C5(c6nncn6C)CC(=O)C5)c4)c(=O)c3c2)C1` [Example 67] yielded a 50% inhibitory concentration (IC50) of 50 to 500 nM.

As to `Cn1cnnc1[C@]1(c2cccc(-n3cc4c(C(F)(F)F)cc(CN5CCOC6(CCC6)C5)cc4n3)c2)C[C@H](C)C1` [Example 40], the concentration for half-maximal inhibition (IC50) is 50 to 500 nM.

As to `CC1CC(c2cccc(-c3n[nH]c4c(CN5CCC[C@H](C)C5)cc(C(F)(F)F)nc34)c2)(c2nncn2C)C1` (stereo partly drawn) [Example 5, (S)-3-(3-(3-methyl-1-(4-methyl-4H-1,2,4-triazol-3-yl)cyclobutyl)phenyl)-7-((3-methylpiperidin-1-yl)methyl)-5-(trifluoromethyl)-1H-pyrazolo[4,3-b]pyridine], the IC50 was in the range of 50 to 500 nM.

In turn, `C[C@H]1CCCN(Cc2cc(C(=O)Nc3cccc(C(c4nncn4C)C4CCC4)c3)cc(C(F)(F)F)c2)C1` (stereo partly shown) [Example 31] gave a 50% inhibitory concentration (IC50) of 50 to 500 nM.

Take `CC1CC(c2cccc(-n3cc4c(C(F)(F)F)cc(CN5C[C@@H](C)C[C@H](C)C5)cc4n3)c2)(c2nncn2C)C1` (stereo partly shown) [Example 86]: the half-maximal inhibitory concentration (IC50) was in the range of 50 to 500 nM.

As to `C[C@H]1CCCN(Cc2cc(C(F)(F)F)c3ncn(-c4cc(C5(c6nncn6C)CC6(CC6)C5)ccn4)c(=O)c3c2)C1` [Example 118], the IC50 lay within 20 to 50 nM.

Turning to `CC1CC(c2cccc(-n3[nH]c(=O)c4c(C(F)(F)F)cc(CN5CCC[C@H](C)C5)cc4c3=O)c2)(c2nncn2C)C1` (stereo partly shown) [Example 81], the half-inhibitory concentration (IC50) lay in the range of 50 to 500 nM.

The compound `CC1CC(c2cc(C#N)cc(-n3cc4c(C(F)(F)F)cc(CN5CCC[C@H](C)C5)cc4n3)c2)(c2nncn2C)C1` (stereo partly shown) [Example 53] gave a 50% inhibitory concentration (IC50) of 50 to 500 nM.

`C[C@H]1CCCN(Cc2cc(C(F)(F)F)c3cnn(-c4cc([C@]5(c6nncn6C)C[C@@H](C)C5)ccn4)c(=O)c3c2)C1` (single isomer, unassigned) [Example 55] yielded a 50% inhibitory concentration (IC50) of 500 to 1000 nM.

As for `C[C@H]1CCCN(Cc2cc(C(F)(F)F)c3cnn(-c4cccc(C5(Cc6nncn6C)COC5)c4)c(=O)c3c2)C1` [Example 13], the IC50 fell in the range of 500 to 1000 nM.

With `CC1CC(c2cccc(-n3ncc4c(C(F)(F)F)cc(CN5CCCCC5)cc4c3=O)c2)(c2nncn2C)C1` (stereo not shown) [Example 22], the concentration for half-maximal inhibition (IC50) was 50 to 500 nM.

The compound `Cn1cnnc1[C@]1(c2ccnc(-n3ncc4c(C(F)(F)F)cc(CN5CCCC6(CC6)C5)cc4c3=O)c2)C[C@H](C)C1` [Example 37] returned a half-inhibitory concentration (IC50) of 50 to 500 nM.

`CC1CC(c2cccc(-n3ncc4c(C(F)(F)F)cc(CN5CCC(F)(F)[C@H](C)C5)cc4c3=O)c2)(c2nncn2C)C1` (stereo partly shown) [Example 14] registered an IC50 of 50 to 500 nM.

Compound `CC1CC(c2cccc(-n3ncc4c(C(F)(F)F)cc(CN5CCC[C@H](C)C5)cc4c3=O)c2)(c2nncn2C)C1` (stereo partly shown) [Example 6] came in with an IC50 of 20 to 50 nM.

With `C#Cc1cc([C@]2(c3nncn3C)C[C@@H](C)C2)cc(-n2cnc3ccc(CN4CCC[C@H](C)C4)cc3c2=O)n1` [Example 97], the IC50 was in the range of 50 to 500 nM.

For `Cn1cnnc1[C@]1(c2ccnc(-n3ncc4c(C(F)(F)F)cc(CN5CCC6(CC6)C5)cc4c3=O)c2)C[C@H](C)C1` [Example 36], the IC50 is 20 to 50 nM.

For the compound `C[C@H]1CCCN(Cc2cc(C(F)(F)F)c3cn(-c4cccc(C5(c6nncn6C)CC(OC(F)F)C5)c4)nc3c2)C1` (stereo partly shown) [Example 59], the IC50 lay in the range of 50 to 500 nM.

With `CC1=CCCN(Cc2cc(C(F)(F)F)c3cnn(-c4cccc(C5(c6nncn6C)CC(C)C5)c4)c(=O)c3c2)C1` (stereo not shown) [Example 21], the IC50 lay within 50 to 500 nM.

Compound `C#CCC1CC(c2cccc(-n3cc4c(C(F)(F)F)cc(CN5CCC[C@H](C)C5)cc4n3)c2)(c2nncn2C)C1` (stereo partly shown) [Example 66] had an IC50 of 20 to 50 nM.

For the compound `C[C@H]1CCCN(Cc2cc(C(F)(F)F)c3cn(-c4cc([C@]5(c6nncn6C)C[C@H](C)C5)ccn4)nc3c2)C1` [Example 71], the IC50 was 50 to 500 nM.

On to `C[C@H]1CCCN(Cc2cc3c(=O)n(-c4cccc([C@]5(c6nncn6C)C[C@@H](C)C5)c4)cnc3c(C(F)(F)F)n2)C1` [Example 62], for which the half-inhibitory concentration (IC50) lay within 20 to 50 nM.

Staying with this assay, now noted: HTRF binding, CBL-B (GST-Tag), fluorescence labeled Cbl-b binding probe.
`C[C@H]1CCCN(Cc2cc(C(F)(F)F)c3sc(-c4cccc(C5(Cc6nncn6C)COC5)c4)nc3c2)C1` [Example 16] had an IC50 of less than 20 nM.

For `C[C@@H]1CN(Cc2cc(C(F)(F)F)c3ncn(-c4cc([C@]5(c6nncn6C)C[C@@H](C)C5)cc(OCF)n4)c(=O)c3c2)CCC1F` (stereo partly shown) [Example 106], the IC50 is less than 20 nM.

`Cn1cnnc1[C@]1(c2cc(OCF)nc(-n3cnc4c(C(F)(F)F)cc(CN5CCCC(C)(F)C5)cc4c3=O)c2)C[C@H](C)C1` (stereo partly shown) [Example 108] registered an IC50 of less than 20 nM.

Regarding `Cn1cnnc1[C@]1(c2ccnc(-n3cnc4c(C(F)(F)F)cc(CN5CCC[C@H](CF)C5)cc4c3=O)c2)C[C@H](C)C1` [Example 105], the IC50 is less than 20 nM.

In the case of `C[C@H]1CCCN(Cc2cc(C(F)(F)F)c3cn(-c4cc(C5(Cc6nncn6C)COC5)cc5c4OCC5)nc3c2)C1` [Example 75], the IC50 is less than 20 nM.

Compound `CC1CC(c2cc(C3CC3)nc(-n3cnc4c(C(F)(F)F)cc(CN5CCC[C@H](C)C5)cc4c3=O)c2)(c2nncn2C)C1` (stereo partly shown) [Example 47] gave an IC50 of less than 20 nM.

For `CC1CC(c2cccc(-n3[nH]c4c(C(F)(F)F)cc(CN5CCC[C@H](C)C5)cc4c3=O)c2)(c2nncn2C)C1` (stereo partly shown) [Example 73], the IC50 was more than 1000 nM.

In the case of `CC1CC(c2cc(OC(F)F)nc(-n3cnc4c(C(F)(F)F)cc(CN5CCC[C@H](C)C5)cc4c3=O)c2)(c2nncn2C)C1` (stereo partly shown) [Example 117], the half-maximal inhibitory concentration (IC50) is less than 20 nM.

For `C[C@H]1CCCN(Cc2cc(C(=O)Nc3cccc([C@]4(c5nncn5C)C[C@@H](C)C4)c3)c(F)c(C(F)(F)F)c2)C1` [Example 28], the concentration for half-maximal inhibition (IC50) is less than 20 nM.

`C[C@H]1CCCN(Cc2ccc3ncn(-c4cc([C@]5(c6nncn6C(F)F)C[C@@H](C)C5)cc(OCF)n4)c(=O)c3c2)C1` [Example 124] gave a 50% inhibitory concentration (IC50) of less than 20 nM.

With `C=Cc1cc(C2(c3nncn3C)CC(C)C2)cc(-n2cnc3c(C(F)(F)F)cc(CN4CCC[C@H](C)C4)cc3c2=O)n1` (stereo partly shown) [Example 49], the IC50 was less than 20 nM.

`[2H]C([2H])(c1cc(C(F)(F)F)c2ncn(-c3cccc([C@]4(c5nncn5C)C[C@@H](C)C4)c3)c(=O)c2c1)N1CCC[C@H](C)C1` [Example 104] yielded a half-inhibitory concentration (IC50) of less than 20 nM.

Regarding `CC1CC(c2cccc(-n3cnc4c(C(F)(F)F)cc(CN5CCC[C@H](C)C5)cc4c3=O)c2)(c2nncn2C)C1` (stereo partly shown) [Example 84], the IC50 was less than 20 nM.
